Measured values as given in PubChem BioAssay (NCI).
Where “and” joins values, the source holds several entries; their conditions need not be identical. Equal values may be shown once.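 Growth conditions: 96-well plates. Treatment: test compound, 48 hours, 5 concentrations. Analysis: linear interpolation between bracketing concentrations; unreached endpoints set to highest concentration. GI50 marks 50% less growth. TGI: total growth inhibition.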

Tests used:
Assay in all cases: DTP human tumour cell line panel, 48 h
[1] = test system: SK-MEL-28 melanoma
[2] = test system: EKVX NSCLC
[3] = test system: HOP-92 NSCLC
[4] = test system: SN12C renal
[5] = test system: HCT-116 colon
[6] = test system: SK-MEL-2 melanoma
[7] = test system: U251 CNS
[8] = test system: HS 578T breast
[9] = test system: ACHN renal
[10] = test system: SK-MEL-5 melanoma

SMILES	GI50 [1]	TGI [1]	GI50 [2] [µM]	TGI [2]	GI50 [3] [µM]	TGI [3]	GI50 [4]	TGI [4]	GI50 [5] [µM]	TGI [5] [µM]	GI50 [6] [µM]	TGI [6]	GI50 [7] [µM]	TGI [7]	GI50 [8] [µM]	TGI [8]	GI50 [9] [µM]	TGI [9]	GI50 [10] [µM]	TGI [10]
CCOc1ccn(-c2ccc(F)cc2)c(=O)c1C(=O)Nc1ccc(Oc2ccnc(N)c2Cl)c(F)c1	6.7 µM	59.1 µM	31.3	> 100 µM	0.801	12.3 µM	5.03 µM	> 100 µM	5.35	21.8	14	35.7 µM	26	> 100 µM	3.7	30.6 µM	9.22	> 89.1 µM	9.99	25.5 µM
O=C1C=CC(=O)c2c(O)c3c(c(O)c21)C[C@H](O)[C@H](O)[C@@H]3O	–	5.38 µM	–	6.15 µM	–	2.87 µM	–	3.82 µM	–	1.73	–	3.43 µM	–	16.3 µM	–	7.87 µM	–	8 µM	–	3.18 µM
Cc1cc(-c2cc(O)ccc2Cl)cc2nnc(Nc3ccc(OCCN4CCCC4)cc3)nc12	0.292 µM	0.843 µM	1.57	3.27 µM	1.1	2.59 µM	1.47 µM	3.03 µM	0.18	0.341	1.7	3.64 µM	0.194	0.372 µM	1.54	3.83 µM	1.43	2.83 µM	1.75	3.37 µM
C=CCC(N[C@H](CO)c1ccccc1)c1cn(Cc2ccccc2Cl)c(=O)n(Cc2ccccc2Cl)c1=O (stereo partly drawn)	19.7 µM	39.5 µM	16.1	96.4 µM	3.92	23.1 µM	14.6 µM	40.9 µM	6.44	20.8	18.9	57.5 µM	11.2	34 µM	26	> 100 µM	4.78	39 µM	14.6	30.1 µM
CC1(C)CCCC(C)(C2CCC3(C)C2C(O)CC2C4(C)CCC(O)C(C)(C)C4CCC23C)O1 (stereo not drawn)	–	> 100 µM	–	> 100 µM	–	> 100 µM	–	> 100 µM	–	> 100	–	> 100 µM	–	> 100 µM	–	89.1 µM	–	> 100 µM	–	> 100 µM
Clc1ccccc1-c1nnc2c(Cc3ccccc3)nc3ccccc3n12	> 48.8 µM	> 100 µM	12.7	> 100 µM	3.45	41.8 µM	> 100 µM	> 100 µM	3.79	> 100	59.4	> 100 µM	4.21	> 100 µM	9.04	> 100 µM	39.4	> 100 µM	3.67	> 100 µM
CCCCCC/C=C\CCCCCCCCCC1=C(CN2CCN(C)CC2)C(=O)C=C(OC)C1=O	–	28.2 µM	–	27.9 µM	–	6.26 µM	–	19.7 µM	–	4.41	–	18.7 µM	–	15 µM	–	24.5 µM	–	13 µM	–	19.3 µM
O=C(O)C1[O][Sb][O]C(C(=O)O)C1O (stereo not drawn)	> 100 µM	> 100 µM	> 100	> 100 µM	> 100	> 100 µM	> 100 µM	> 100 µM	> 100	> 100	> 100	> 100 µM	> 100	> 100 µM	> 100	> 100 µM	> 100	> 100 µM	> 100	> 100 µM
CC(C)CCCCCCCCCCCCC(=O)NCC(=O)NC1C(O)C(O)C(Nc2ncnc3nc[nH]c23)OC1C(O)CO (stereo not drawn)	0.00334 µM and 0.0102 µM	0.37 µM and 0.797 µM	–	0.0228 µM and 0.0578 µM and 0.0199 µM	< 1e-05	–	0.00574 µM and 0.005 µM	0.0729 µM and 0.0145 µM	–	–	< 1e-05	0.0117 µM and 0.0389 µM and 0.0107 µM	–	–	–	0.446 µM	< 1e-05	–	–	–
CC1=CC(C)(C)NN1C1=NS(=O)(=O)c2ccccc2N1C	–	> 100 µM	–	> 100 µM	–	> 100 µM	–	> 100 µM	–	> 100	–	> 100 µM	–	> 100 µM	–	> 100 µM	–	> 100 µM	–	> 100 µM
CC1NC(=O)C2=C1C(=O)NC(=O)C2 (stereo not drawn)	–	–	> 100	> 100 µM	> 100	> 100 µM	> 100 µM	> 100 µM	> 100	> 100	> 100	> 100 µM	–	–	> 100	> 100 µM	> 100	> 100 µM	> 100	> 100 µM
Cn1cc(-c2cnn3c(N)c(Br)c(C4CCCNC4)nc23)cn1 (stereo not drawn)	24.3 µM	> 100 µM	10.4	70 µM	5.51	> 68.5 µM	3.86 µM	50.6 µM	6.04	24.6	17.1	63.7 µM	20.2	> 100 µM	4	> 72.3 µM	0.417	> 100 µM	3.64	18.7 µM
C/C(=C(\c1ccc(OCCN2CCCCCC2)cc1)c1ccc(OC(=O)c2ccccc2)cc1)c1ccc(Cl)cc1	4.33 µM	9.02 µM	4.97	13.9 µM	3.57	7.8 µM	4.21 µM	9.53 µM	1.62	6.05	5.32	10.5 µM	3.76	8.08 µM	3.04	9.76 µM	4.87	9.46 µM	4.55	8.84 µM
C/C=C1/CC(C)C(C)(O)C(=O)OCC2C(O)CN3CCC(OC1=O)C23 (stereo not drawn)	–	–	–	> 100 µM	–	> 100 µM	–	> 100 µM	–	> 100	–	> 100 µM	–	> 100 µM	–	> 100 µM	–	> 100 µM	–	> 100 µM
COc1ccc([C@@]23Oc4cc(OC)cc(OC)c4[C@]2(O)[C@H](O)[C@H](C(N)=O)[C@H]3c2ccccc2)cc1	< 0.0116 µM	–	–	0.108 µM and 0.158 µM	< 0.0153	0.317 µM and 0.0541 µM	< 0.0113 µM	0.0751 µM	–	0.488	< 0.0147	0.0556 µM and 0.0738 µM	–	0.612 µM and 0.194 µM	< 0.0135	0.0914 µM and < 0.01 µM	–	0.0474 µM and 0.0476 µM	–	0.0329 µM and < 0.0139 µM
O=C1c2ccccc2-c2c1c1ccccc1c(=O)n2CCCNCCn1c2c(c3ccccc3c1=O)C(=O)c1ccccc1-2	16 µM	38 µM	12.5	27.2 µM	14.1	28.1 µM	10.9 µM	22.9 µM	1.05	3.13	28.2	96.9 µM	1.61	3.29 µM	16.5	64.6 µM	12.3	24.8 µM	–	–
COc1ccc(/C=C2/SC(Nc3nc(-c4nc(NC5=NC(=O)/C(=C\c6ccc(OC)cc6)S5)sc4C)c(C)s3)=NC2=O)cc1	–	–	0.213	2.43 µM	6.15	19.1 µM	1.96 µM	9.19 µM	1.2	9.78	15.2	> 50 µM	1.3	7.32 µM	0.288	1.61 µM	0.838	9.74 µM	0.282	3.93 µM
N#Cc1cnc(Nc2cc(NC[C@H]3CNCCO3)c(C(F)(F)F)cn2)cn1	16.3 µM	46.5 µM	17.5	59.4 µM	8.95	26.6 µM	17.7 µM	83 µM	23.3	> 100	12.6	34.7 µM	21.8	73 µM	0.882	60.3 µM	–	–	9.3	21.6 µM
Nc1ccccc1C(=O)CCC1C(=O)NC(=S)NC1=O	–	> 100 µM	–	> 100 µM	–	> 100 µM	–	–	–	> 100	–	> 100 µM	–	> 100 µM	–	> 100 µM	–	> 100 µM	–	> 100 µM
CN1CCN(Cc2ccc(NC(=O)c3cncc(C#Cc4cnc(N)c5cccnc45)c3)cc2C(F)(F)F)CC1	0.176 µM	1.85 µM	1.36	> 50 µM	0.148	1.16 µM	0.311 µM	> 50 µM	0.224	6.6	0.12	0.332 µM	0.233	> 31.5 µM	0.196	1.61 µM	–	–	0.571	2.13 µM
CCN(CC)CCCC(C)N/C(=C1\C(=O)NC(=O)\C1=C(/NC(C)CCCN(CC)CC)c1cccc(OC)c1)c1cccc(OC)c1 (stereo not drawn)	0.913 µM	1.67 µM	–	–	0.642	1.76 µM	1.27 µM	7.03 µM	0.45	3.24	0.947	1.8 µM	0.844	1.89 µM	1.11	3.22 µM	0.393	2.16 µM	0.836	1.54 µM
